Activity calls are given as the source filed them. The calls are words filed in the database; no cut-off is given here.
Assays:
[1] = biological target: Ephrin type-A receptor 4 (Homo sapiens) (UniProt P54764); test: Inhibition of EPHA4 (unknown origin) at 10 uM by Ambit Kinomescan binding assay relative to control
[2] = biological target: Serine/threonine-protein kinase 32C (Homo sapiens) (UniProt Q86UX6); test: Inhibition of YANK3 (unknown origin) at 10 uM by Ambit Kinomescan binding assay
[3] = biological target: Tyrosine-protein kinase Lyn (Homo sapiens, UniProt P07948); test: Inhibition of LYN Lys1 labeling site in human A-375 cells at 0.05 uM by KiNativ Profiling analysis relative to control; assay type: cell-based
[4] = biological target: Fibroblast growth factor receptor 2 (Homo sapiens) (UniProt P21802); test: Inhibition of FGFR2 (unknown origin) at 10 uM by Ambit Kinomescan binding assay relative to control; values are per cent of control
[5] = biological target: T1, Serine/threonine-protein kinase ULK3 (Homo sapiens) (UniProt Q6PHR2); test: Inhibition of ULK3 Lys1 labeling site in human Huh-7 cell lysate at 1 uM by KiNativ Profiling analysis relative to control; assay type: subcellular
T1 sequence (whole entry): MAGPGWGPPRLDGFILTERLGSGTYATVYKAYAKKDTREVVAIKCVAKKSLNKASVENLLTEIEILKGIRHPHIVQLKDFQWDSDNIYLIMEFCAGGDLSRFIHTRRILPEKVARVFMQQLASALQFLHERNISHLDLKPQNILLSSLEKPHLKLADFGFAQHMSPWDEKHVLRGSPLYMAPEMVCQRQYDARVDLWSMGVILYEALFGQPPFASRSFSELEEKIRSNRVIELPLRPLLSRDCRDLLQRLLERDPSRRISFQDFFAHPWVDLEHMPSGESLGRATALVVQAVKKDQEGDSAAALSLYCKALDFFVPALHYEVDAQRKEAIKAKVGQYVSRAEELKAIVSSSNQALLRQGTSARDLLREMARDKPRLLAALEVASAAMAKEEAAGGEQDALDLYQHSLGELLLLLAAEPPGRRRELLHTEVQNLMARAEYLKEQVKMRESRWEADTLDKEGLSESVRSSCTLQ

[6] = biological target: Serine/threonine-protein kinase 32C (Homo sapiens) (UniProt Q86UX6); test: Inhibition of YANK3 Lys2 labeling site in human Huh-7 cell lysate at 1 uM by KiNativ Profiling analysis relative to control; assay type: subcellular
[7] = biological target: Cyclin-dependent kinase 1 (Homo sapiens) (UniProt P06493); test: Inhibition of CDC2 Lys2 labeling site in human Huh-7 cells at 1 uM by KiNativ Profiling analysis relative to control; assay type: cell-based
[8] = biological target: Cyclin-dependent kinase 11B (Homo sapiens) (UniProt P21127); test: Inhibition of CDK11 (unknown origin) at 1 uM by Ambit Kinomescan binding assay relative to control
[9] = biological target: T2, Serine/threonine-protein kinase 3 (Homo sapiens) (UniProt Q13188); test: Inhibition of MST2 (unknown origin) at 1 uM by Ambit Kinomescan binding assay relative to control
T2 sequence (whole entry): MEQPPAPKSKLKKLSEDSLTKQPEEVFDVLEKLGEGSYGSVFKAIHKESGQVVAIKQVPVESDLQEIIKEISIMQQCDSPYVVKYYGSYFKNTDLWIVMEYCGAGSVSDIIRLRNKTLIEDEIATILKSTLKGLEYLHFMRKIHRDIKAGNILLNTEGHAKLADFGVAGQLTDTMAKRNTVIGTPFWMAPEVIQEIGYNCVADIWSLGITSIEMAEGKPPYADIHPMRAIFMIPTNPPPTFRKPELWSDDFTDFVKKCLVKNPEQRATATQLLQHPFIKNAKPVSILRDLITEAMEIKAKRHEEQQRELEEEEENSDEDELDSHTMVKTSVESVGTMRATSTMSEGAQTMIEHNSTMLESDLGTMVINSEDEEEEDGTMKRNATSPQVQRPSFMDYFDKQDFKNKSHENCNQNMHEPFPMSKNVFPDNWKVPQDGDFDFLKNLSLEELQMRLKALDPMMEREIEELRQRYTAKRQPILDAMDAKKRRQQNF

[10] = biological target: Casein kinase I isoform epsilon (Homo sapiens) (UniProt P49674); test: Inhibition of CK1epsilon Lys2 labeling site in human A-375 cells at 5 uM by KiNativ Profiling analysis relative to control; assay type: cell-based
[11] = biological target: T3, Inhibitor of nuclear factor kappa-B kinase subunit epsilon (Homo sapiens) (UniProt Q14164); test: Inhibition of IKKe Lys2 labeling site in human A-375 cells at 5 uM by KiNativ Profiling analysis relative to control; assay type: cell-based
T3 sequence (whole entry): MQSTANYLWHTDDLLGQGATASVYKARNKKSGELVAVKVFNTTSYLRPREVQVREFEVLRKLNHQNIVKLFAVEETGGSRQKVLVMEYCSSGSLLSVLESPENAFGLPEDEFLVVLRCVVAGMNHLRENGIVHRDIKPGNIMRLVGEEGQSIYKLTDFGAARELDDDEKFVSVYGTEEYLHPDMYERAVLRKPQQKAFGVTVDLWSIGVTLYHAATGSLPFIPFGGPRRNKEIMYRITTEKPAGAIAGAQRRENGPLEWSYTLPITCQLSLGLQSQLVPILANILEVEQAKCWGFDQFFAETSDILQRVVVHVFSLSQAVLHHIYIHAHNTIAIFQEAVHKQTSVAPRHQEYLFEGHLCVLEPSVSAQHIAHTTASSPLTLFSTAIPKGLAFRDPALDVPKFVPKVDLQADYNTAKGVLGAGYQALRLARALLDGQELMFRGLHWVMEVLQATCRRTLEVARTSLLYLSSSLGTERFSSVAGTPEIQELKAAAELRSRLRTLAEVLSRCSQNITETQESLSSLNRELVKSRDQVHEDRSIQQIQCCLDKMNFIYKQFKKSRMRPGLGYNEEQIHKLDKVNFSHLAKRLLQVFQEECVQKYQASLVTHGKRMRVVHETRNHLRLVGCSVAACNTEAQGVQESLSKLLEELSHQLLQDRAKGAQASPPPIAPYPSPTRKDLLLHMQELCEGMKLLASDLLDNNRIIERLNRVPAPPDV

[12] = biological target: Dual specificity mitogen-activated protein kinase kinase 1 (Homo sapiens) (UniProt Q02750); test: Inhibition of MAP2K1 Lys2 labeling site harbouring IMHRDVKPSNILVNSR in human A-375 cells at 5 uM by KiNativ Profiling analysis relative to control; assay type: cell-based
[13] = biological target: Glycogen synthase kinase-3 alpha (Homo sapiens) (UniProt P49840); test: Inhibition of GSK3A Lys2 labeling site in human A-375 cells at 0.5 uM by KiNativ Profiling analysis relative to control; assay type: cell-based
[14] = biological target: Serine/threonine-protein kinase mTOR (Homo sapiens) (UniProt P42345); test: Inhibition of FRAP ATP labeling site in human A-375 cells at 0.05 uM by KiNativ Profiling analysis relative to control; assay type: cell-based
[15] = biological target: Calcium/calmodulin-dependent protein kinase type II subunit delta (Homo sapiens) (UniProt Q13557); test: Inhibition of CAMK2D (unknown origin) at 1 uM by Ambit Kinomescan binding assay relative to control; values are per cent of control

Sequence of Serine/threonine-protein kinase 32C (Homo sapiens) (Q86UX6 whole entry): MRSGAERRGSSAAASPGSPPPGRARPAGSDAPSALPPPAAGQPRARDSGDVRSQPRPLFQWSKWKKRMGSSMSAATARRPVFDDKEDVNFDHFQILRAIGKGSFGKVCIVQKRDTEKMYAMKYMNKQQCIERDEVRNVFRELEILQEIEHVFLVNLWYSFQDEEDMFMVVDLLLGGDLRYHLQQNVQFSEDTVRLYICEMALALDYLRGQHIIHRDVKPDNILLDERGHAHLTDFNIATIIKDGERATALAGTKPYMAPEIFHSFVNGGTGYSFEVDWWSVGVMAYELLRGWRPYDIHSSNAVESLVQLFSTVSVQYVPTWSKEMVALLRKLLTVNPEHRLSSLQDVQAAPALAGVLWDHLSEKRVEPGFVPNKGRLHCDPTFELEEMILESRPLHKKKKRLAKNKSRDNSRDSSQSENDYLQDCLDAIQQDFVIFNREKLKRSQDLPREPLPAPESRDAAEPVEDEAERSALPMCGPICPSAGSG
Sequence of Tyrosine-protein kinase Lyn (P07948 2-512 limits assumed): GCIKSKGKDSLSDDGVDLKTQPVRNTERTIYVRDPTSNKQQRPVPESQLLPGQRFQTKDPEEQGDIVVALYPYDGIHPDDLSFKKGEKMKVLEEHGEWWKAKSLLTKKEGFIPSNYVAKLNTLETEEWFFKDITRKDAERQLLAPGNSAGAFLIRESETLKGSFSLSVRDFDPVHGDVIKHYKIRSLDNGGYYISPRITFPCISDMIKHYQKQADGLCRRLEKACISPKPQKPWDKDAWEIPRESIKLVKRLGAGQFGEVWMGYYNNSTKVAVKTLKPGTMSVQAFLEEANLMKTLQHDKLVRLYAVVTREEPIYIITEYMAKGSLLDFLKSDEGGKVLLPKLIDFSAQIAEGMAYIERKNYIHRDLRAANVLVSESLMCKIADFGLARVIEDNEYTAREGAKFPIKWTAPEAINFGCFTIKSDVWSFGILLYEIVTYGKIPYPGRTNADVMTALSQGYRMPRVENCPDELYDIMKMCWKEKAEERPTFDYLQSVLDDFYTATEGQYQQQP
Sequence of Ephrin type-A receptor 4 (Homo sapiens) (P54764 whole entry): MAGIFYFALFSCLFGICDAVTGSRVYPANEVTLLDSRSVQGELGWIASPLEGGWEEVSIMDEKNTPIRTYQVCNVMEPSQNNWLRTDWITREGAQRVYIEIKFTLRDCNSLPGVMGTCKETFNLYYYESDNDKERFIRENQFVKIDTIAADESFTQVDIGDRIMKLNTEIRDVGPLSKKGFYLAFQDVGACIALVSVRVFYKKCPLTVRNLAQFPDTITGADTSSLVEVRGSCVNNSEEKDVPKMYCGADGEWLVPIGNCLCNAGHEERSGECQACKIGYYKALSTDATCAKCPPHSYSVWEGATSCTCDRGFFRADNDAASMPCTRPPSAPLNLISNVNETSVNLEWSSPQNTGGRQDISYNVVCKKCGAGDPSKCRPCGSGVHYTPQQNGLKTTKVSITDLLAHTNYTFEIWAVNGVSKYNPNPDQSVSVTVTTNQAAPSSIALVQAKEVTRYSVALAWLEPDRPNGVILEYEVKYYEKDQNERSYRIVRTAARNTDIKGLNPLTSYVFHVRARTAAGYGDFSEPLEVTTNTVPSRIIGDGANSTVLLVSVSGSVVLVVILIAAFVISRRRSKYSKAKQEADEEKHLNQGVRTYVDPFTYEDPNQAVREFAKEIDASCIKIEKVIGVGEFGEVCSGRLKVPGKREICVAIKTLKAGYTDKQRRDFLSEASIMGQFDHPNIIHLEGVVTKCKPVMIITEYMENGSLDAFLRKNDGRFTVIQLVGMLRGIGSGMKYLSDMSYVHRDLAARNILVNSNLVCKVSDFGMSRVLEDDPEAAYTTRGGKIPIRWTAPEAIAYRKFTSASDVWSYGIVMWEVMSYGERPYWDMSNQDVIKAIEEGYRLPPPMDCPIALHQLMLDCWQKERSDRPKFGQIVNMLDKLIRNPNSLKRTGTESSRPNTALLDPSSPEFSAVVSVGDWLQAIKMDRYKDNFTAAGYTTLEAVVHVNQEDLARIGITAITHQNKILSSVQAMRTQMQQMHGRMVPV
Sequence of Cyclin-dependent kinase 1 (Homo sapiens) (P06493 whole entry, looked up): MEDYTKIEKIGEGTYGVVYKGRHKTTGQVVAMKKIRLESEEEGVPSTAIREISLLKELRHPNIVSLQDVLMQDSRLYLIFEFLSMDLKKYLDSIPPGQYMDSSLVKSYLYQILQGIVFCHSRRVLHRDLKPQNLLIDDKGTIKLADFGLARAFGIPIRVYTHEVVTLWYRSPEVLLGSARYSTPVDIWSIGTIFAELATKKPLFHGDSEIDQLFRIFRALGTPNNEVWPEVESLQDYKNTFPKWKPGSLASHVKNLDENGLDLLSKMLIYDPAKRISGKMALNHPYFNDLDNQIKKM
Sequence of Fibroblast growth factor receptor 2 (Homo sapiens) (P21802 22-821 limits assumed): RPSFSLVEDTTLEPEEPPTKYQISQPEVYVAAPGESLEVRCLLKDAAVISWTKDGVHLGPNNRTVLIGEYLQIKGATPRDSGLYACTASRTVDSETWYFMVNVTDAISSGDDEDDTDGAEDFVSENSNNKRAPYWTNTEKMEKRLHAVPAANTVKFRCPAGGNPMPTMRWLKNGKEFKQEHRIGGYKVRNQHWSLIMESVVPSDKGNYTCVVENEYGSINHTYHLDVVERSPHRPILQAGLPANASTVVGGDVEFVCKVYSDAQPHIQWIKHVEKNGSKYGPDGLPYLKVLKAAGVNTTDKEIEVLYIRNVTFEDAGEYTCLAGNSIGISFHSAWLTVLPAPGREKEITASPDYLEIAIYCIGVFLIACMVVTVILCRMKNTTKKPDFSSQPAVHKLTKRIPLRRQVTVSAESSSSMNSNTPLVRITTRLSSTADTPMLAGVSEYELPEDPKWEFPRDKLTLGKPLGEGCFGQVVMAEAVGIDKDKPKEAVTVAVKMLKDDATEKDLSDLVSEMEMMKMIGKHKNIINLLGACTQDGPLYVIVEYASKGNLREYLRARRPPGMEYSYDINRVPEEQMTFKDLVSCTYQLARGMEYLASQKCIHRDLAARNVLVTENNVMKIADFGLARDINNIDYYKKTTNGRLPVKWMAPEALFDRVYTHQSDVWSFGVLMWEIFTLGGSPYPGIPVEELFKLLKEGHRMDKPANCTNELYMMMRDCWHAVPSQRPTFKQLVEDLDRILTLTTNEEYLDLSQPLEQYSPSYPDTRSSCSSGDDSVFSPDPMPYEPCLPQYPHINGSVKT
Sequence of Cyclin-dependent kinase 11B (Homo sapiens) (P21127 whole entry): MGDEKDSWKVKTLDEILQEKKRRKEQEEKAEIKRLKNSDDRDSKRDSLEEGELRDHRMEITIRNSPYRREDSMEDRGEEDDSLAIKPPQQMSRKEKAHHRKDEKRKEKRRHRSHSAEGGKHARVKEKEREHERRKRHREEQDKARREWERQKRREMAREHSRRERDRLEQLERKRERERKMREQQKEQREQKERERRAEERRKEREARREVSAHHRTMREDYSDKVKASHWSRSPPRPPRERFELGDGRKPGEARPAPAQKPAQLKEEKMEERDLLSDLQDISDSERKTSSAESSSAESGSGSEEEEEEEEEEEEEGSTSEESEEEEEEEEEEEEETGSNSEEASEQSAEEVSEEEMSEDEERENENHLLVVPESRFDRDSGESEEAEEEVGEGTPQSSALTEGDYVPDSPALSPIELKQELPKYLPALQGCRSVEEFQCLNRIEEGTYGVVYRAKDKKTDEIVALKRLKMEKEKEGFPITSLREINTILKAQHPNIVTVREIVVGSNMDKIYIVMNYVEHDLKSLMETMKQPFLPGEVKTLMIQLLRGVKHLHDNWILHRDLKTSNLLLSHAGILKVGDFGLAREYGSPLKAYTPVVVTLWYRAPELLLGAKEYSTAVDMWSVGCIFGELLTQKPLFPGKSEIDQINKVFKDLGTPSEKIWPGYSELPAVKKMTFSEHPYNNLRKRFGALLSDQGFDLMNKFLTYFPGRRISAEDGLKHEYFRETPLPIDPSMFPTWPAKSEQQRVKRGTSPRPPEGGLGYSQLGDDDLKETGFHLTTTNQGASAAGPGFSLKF
Sequence of Glycogen synthase kinase-3 alpha (Homo sapiens) (P49840 2-483 limits assumed): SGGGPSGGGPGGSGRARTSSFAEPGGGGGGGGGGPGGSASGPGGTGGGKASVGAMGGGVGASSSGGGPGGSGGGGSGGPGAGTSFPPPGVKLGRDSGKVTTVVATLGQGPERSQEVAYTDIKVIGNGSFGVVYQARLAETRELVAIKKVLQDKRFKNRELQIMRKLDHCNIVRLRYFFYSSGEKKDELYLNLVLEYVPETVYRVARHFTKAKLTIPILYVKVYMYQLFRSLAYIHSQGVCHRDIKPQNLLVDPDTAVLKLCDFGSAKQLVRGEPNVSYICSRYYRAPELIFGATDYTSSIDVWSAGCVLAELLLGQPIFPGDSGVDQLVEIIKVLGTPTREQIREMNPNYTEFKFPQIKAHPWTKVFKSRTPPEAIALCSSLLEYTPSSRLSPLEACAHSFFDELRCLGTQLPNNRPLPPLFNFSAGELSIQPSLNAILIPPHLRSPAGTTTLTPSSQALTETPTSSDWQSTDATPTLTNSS
Sequence of Dual specificity mitogen-activated protein kinase kinase 1 (Homo sapiens) (Q02750 whole entry): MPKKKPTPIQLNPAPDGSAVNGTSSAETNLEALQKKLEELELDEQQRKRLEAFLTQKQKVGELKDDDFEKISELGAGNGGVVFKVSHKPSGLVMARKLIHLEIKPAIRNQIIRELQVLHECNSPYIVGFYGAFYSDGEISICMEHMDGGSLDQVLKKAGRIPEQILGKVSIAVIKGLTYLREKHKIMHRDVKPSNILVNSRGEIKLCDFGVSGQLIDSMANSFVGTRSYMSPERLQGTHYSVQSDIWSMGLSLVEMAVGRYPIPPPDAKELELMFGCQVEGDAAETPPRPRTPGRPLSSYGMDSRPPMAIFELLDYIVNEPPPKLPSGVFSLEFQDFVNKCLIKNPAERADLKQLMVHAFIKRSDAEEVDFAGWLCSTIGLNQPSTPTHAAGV

SMILES: CCN1CCN(Cc2ccc(NC(=O)c3ccc(C)c(Oc4ccnc5[nH]ccc45)c3)cc2C(F)(F)F)CC1
- inhibition [1]: 5.8%
- inhibition [2]: inactive
- inhibition [3]: 71.9%
- percent of control [4]: 1.4%

SMILES: CNc1cc(Oc2cc(C(=O)Nc3cc(N4CCN(C)CC4)cc(C(F)(F)F)c3)ccc2C)ncn1
- inhibition [5]: -5.1%
- inhibition [6]: -3.3%
- inhibition [7]: 5%

SMILES: CCN1CCN(Cc2ccc(NC(=O)c3ccc(C)c(/C=C/c4cnc5[nH]ccc5c4OC)c3)cc2C(F)(F)F)CC1
- inhibition [8]: 27%
- inhibition [9]: 100%
- inhibition [10]: 1.4%
- inhibition [11]: 37.6%
- inhibition [12]: 34.7%
- inhibition [13]: 11.4%
- inhibition [14]: -7.6%
- residual activity [15]: 100%
